In brackets after ≈: the same amount, converted by molar mass.
What was measured:
Staphylococcus aureus = assay: Antibacterial activity against Staphylococcus aureus by agar well diffusion method; assay type: functional
Escherichia coli = assay: Antibacterial activity against Escherichia coli by agar well diffusion method; assay type: functional

MIC (Staphylococcus aureus) [µM] | MIC (Escherichia coli) [µM] | Structure (SMILES)
32.3 (≈ 13.3 µg/mL) | 39 (≈ 16 µg/mL) | COc1cc(Cc2cnc(N)nc2N)cc(OC)c1OCc1ccc([N+](=O)[O-])cc1
18.2 (≈ 6.67 µg/mL) | 18.2 (≈ 6.67 µg/mL) | COc1cc(Cc2cnc(N)nc2N)cc(OC)c1OCc1ccccc1
18.7 (≈ 7.94 µg/mL) | 18.7 (≈ 7.94 µg/mL) | COc1ccc(C(=O)COc2c(OC)cc(Cc3cnc(N)nc3N)cc2OC)cc1
72.9 (≈ 32 µg/mL) | 72.9 (≈ 32 µg/mL) | COc1cc(Cc2cnc(N)nc2N)cc(OC)c1OCC(=O)c1ccc([N+](=O)[O-])cc1
535 (≈ 214 µg/mL) | 535 (≈ 214 µg/mL) | COc1cc(Cc2cnc(N)nc2/N=C/c2ccc(Cl)cc2)cc(OC)c1O
78.4 (≈ 33.6 µg/mL) | 78.4 (≈ 33.6 µg/mL) | COc1cc(Cc2cnc(N)nc2N)cc(OC)c1OCC(=O)c1ccc(Cl)cc1
81.2 (≈ 32 µg/mL) | 81.2 (≈ 32 µg/mL) | COc1cc(Cc2cnc(N)nc2N)cc(OC)c1OCC(=O)c1ccccc1
672 (≈ 256 µg/mL) | 336 (≈ 128 µg/mL) | COc1cc(Cc2cnc(N)nc2/N=C/c2cccc(O)c2)cc(OC)c1O
10 (≈ 3.8 µg/mL) | 5 (≈ 1.9 µg/mL) | COc1cc(Cc2cnc(N)nc2N)cc(OC)c1OCc1ccc(C)cc1
672 (≈ 256 µg/mL) | 672 (≈ 256 µg/mL) | COc1cc(Cc2cnc(N)nc2/N=C/c2ccc(O)cc2)cc(OC)c1O
37.7 (≈ 15.4 µg/mL) | 15.5 (≈ 6.33 µg/mL) | COc1cc(Cc2cnc(N)nc2N)cc(OC)c1OCC(=O)c1ccc(C)cc1
20 (≈ 8.02 µg/mL) | 8.3 (≈ 3.33 µg/mL) | COc1cc(Cc2cnc(N)nc2N)cc(OC)c1OCc1ccc(Cl)cc1
5 (≈ 1.98 µg/mL) | 4 (≈ 1.59 µg/mL) | COc1ccc(COc2c(OC)cc(Cc3cnc(N)nc3N)cc2OC)cc1
24.1 (≈ 6.66 µg/mL) | 48.2 (≈ 13.3 µg/mL) | COc1cc(Cc2cnc(N)nc2N)cc(OC)c1O [4-HYDROXYTRIMETHOPRIM]
22.7 (≈ 6.59 µg/mL) | 55.1 (≈ 16 µg/mL) | COc1cc(Cc2cnc(N)nc2N)cc(OC)c1OC [TRIMETHOPRIM]
